{"source": "paper PMC8351594", "about": "“Design of Novel Amphipathic α-Helical Antimicrobial Peptides with No Toxicity as Therapeutics against the Antibiotic-Resistant Gram-Negative Bacterial Pathogen, Acinetobacter Baumannii” (Journal of medicinal chemistry and drug design, 2019)", "key": {"[1]": {"tested_on": "Acinetobacter baumannii MB9941", "details": "Mueller-Hinton medium, 37°C, 24 h, inoculum 5 × 10^5 CFU/mL; MIC based on three sets of determinations", "experimental": "(§1) The A. baumannii strains used in this study consisted of seven strains resistant to Polymyxin B and Colistin (antibiotics of last resort) obtained from MERCK (M89941, M89949, M89951, M89952, M89953, M89955 and M89963). The MICGM in this case is the geometric mean MIC from the seven Acinetobacter baumannii strains used in this study.\n(§2) The minimal inhibitory concentration (MIC) is defined as the lowest peptide concentration that inhibited bacterial growth. MICs were measured by a standard microtiter dilution method in Mueller Hinton (MH) medium. Briefly, cells were grown overnight at 37°C in MH broth and were diluted in the same medium. […] The plates were incubated at 37°C for 24h, and the MICs were determined. The MICGM is the geometric mean of the number of MIC values."}, "[2]": {"tested_on": "Acinetobacter baumannii MB9949", "details": "Mueller-Hinton medium, 37°C, 24 h, inoculum 5 × 10^5 CFU/mL; MIC based on three sets of determinations", "experimental": "as §1, §2"}, "[3]": {"tested_on": "Acinetobacter baumannii MB9951", "details": "Mueller-Hinton medium, 37°C, 24 h, inoculum 5 × 10^5 CFU/mL; MIC based on three sets of determinations", "experimental": "as §1, §2"}, "[4]": {"tested_on": "Acinetobacter baumannii MB9952", "details": "Mueller-Hinton medium, 37°C, 24 h, inoculum 5 × 10^5 CFU/mL; MIC based on three sets of determinations", "experimental": "as §1, §2"}, "[5]": {"tested_on": "Acinetobacter baumannii MB9953", "details": "Mueller-Hinton medium, 37°C, 24 h, inoculum 5 × 10^5 CFU/mL; MIC based on three sets of determinations", "experimental": "as §1, §2"}, "[6]": {"tested_on": "Acinetobacter baumannii MB9955", "details": "Mueller-Hinton medium, 37°C, 24 h, inoculum 5 × 10^5 CFU/mL; MIC based on three sets of determinations", "experimental": "as §1, §2"}, "[7]": {"tested_on": "Acinetobacter baumannii MB9963", "details": "Mueller-Hinton medium, 37°C, 24 h, inoculum 5 × 10^5 CFU/mL; MIC based on three sets of determinations", "experimental": "as §1, §2"}, "human red blood cells [8]": {"tested_on": "human red blood cells", "assay": "Hemolytic activity (HC50) determination", "details": "1% human erythrocytes in PBS pH 7.4, 37°C, 18 h, 12 concentrations up to 1000 μg/mL, hemoglobin release at 570 nm, average of 3 replicates; estimated by extrapolation when 50% hemolysis not observed at 1000 μg/mL", "description": "(§3) Peptide samples (concentrations determined by amino acid analysis) were added to 1% human erythrocytes in phosphate-buffered saline (100 mM NaCl, 80 mM Na2HPO4, 20 mM NaH2PO4, pH 7.4) and the reaction mixtures were incubated at 37°C for 18h in microtiter plates. Two-fold serial dilutions of the peptide samples were carried out. This determination was made by withdrawing aliquots from the hemolysis assays and removing unlysed erythrocytes by centrifugation (800 × g). Hemoglobin release was determined spectrophotometrically at 570 nm. The control for 100% hemolysis was a sample of erythrocytes treated with water. The control for no release of hemoglobin was a sample of 1% erythrocytes without any peptide added. […] The hemolytic activity HC50 is the peptide concentration that causes 50% hemolysis of erythrocytes after 18h. HC50 was determined from a plot of percent lysis versus peptide concentration (μM) using 12 different concentrations up to 1000 micrograms per ml for 18h at 37°C. The average of 3 replicates is used with an average variance of less than 4%. Fresh human blood was obtained from Vitalant, Denver, CO, USA.\n(§4) In order to determine that we were able to eliminate hemolysis of human red blood cells, we used the most rigorous test of hemolytic activity (18h at 37°C and up to 1000 μg/mL or >350 μM of AMP). […] The HC50 value is estimated when 50% hemolysis is not observed at 1000 μg/mL by extrapolation of the plots observed in figure 3."}, "human red blood cells [9]": {"tested_on": "human red blood cells", "description": "as §3, §4"}}, "note": "Square brackets hold non-standard residues; d marks the D form. Peptide text beside a SMILES is read from it. Dab = NCC[C@H](N)C(=O)O; Dap = NC[C@H](N)C(=O)O"}
{"smiles": "CC(=O)N[C@H](CCCCN)C(=O)N[C@H](CC(C)C)C(=O)N[C@H](CCCCN)C(=O)N[C@H](CO)C(=O)N[C@H](CC(C)C)C(=O)N[C@H](CC(C)C)C(=O)N[C@H](CCCCN)C(=O)N[C@@H](C(=O)N[C@H](CC(C)C)C(=O)N[C@H](CO)C(=O)N[C@H](C)C(=O)N[C@H](C)C(=O)N[C@H](CCCCN)C(=O)N[C@H](CCCCN)C(=O)N[C@H](CCCCN)C(=O)N[C@H](CCCCN)C(=O)N[C@H](CC(C)C)C(=O)N[C@H](C)C(=O)N[C@@H](C(=O)N[C@H](CC(C)C)C(=O)N[C@H](CC(C)C)C(=O)N[C@H](CCCCN)C(=O)N[C@H](C)C(=O)N[C@H](CC(C)C)C(=O)N[C@H](CO)C(=O)N[C@H](CO)C(N)=O)[C@H](C)O)[C@H](C)O", "note": "[D103(Lys^1Ser^26-5 Lys-2)] (Ac-[dK][dL][dK][dS][dL][dL][dK][dT][dL][dS][dA][dA][dK][dK][dK][dK][dL][dA][dT][dL][dL][dK][dA][dL][dS][dS]-NH2)", "values": [{"measurement": "MIC MB9941", "setting": "[1]", "result": 0.7, "unit": "µM"}, {"measurement": "MIC MB9949", "setting": "[2]", "result": 0.7, "unit": "µM"}, {"measurement": "MIC MB9951", "setting": "[3]", "result": 0.7, "unit": "µM"}, {"measurement": "MIC MB9952", "setting": "[4]", "result": 0.7, "unit": "µM"}, {"measurement": "MIC MB9953", "setting": "[5]", "result": 0.7, "unit": "µM"}, {"measurement": "MIC MB9955", "setting": "[6]", "result": 0.7, "unit": "µM"}, {"measurement": "MIC MB9963", "setting": "[7]", "result": 0.7, "unit": "µM"}, {"measurement": "HC50 (concentration of peptide that results in 50% hemolysis)", "setting": "human red blood cells [8]", "result": 134.9, "unit": "µM"}]}
{"smiles": "CC(=O)N[C@H](CCCCN)C(=O)N[C@H](CC(C)C)C(=O)N[C@@H](CCN)C(=O)N[C@H](CO)C(=O)N[C@H](CC(C)C)C(=O)N[C@H](CC(C)C)C(=O)N[C@@H](CCN)C(=O)N[C@@H](C(=O)N[C@H](CC(C)C)C(=O)N[C@H](CO)C(=O)N[C@@H](CCN)C(=O)N[C@H](C)C(=O)N[C@H](CCCCN)C(=O)N[C@H](C)C(=O)N[C@H](C)C(=O)N[C@H](CCCCN)C(=O)N[C@H](CC(C)C)C(=O)N[C@@H](CCN)C(=O)N[C@@H](C(=O)N[C@H](CC(C)C)C(=O)N[C@H](CC(C)C)C(=O)N[C@@H](CCN)C(=O)N[C@H](C)C(=O)N[C@H](CC(C)C)C(=O)N[C@H](CO)C(=O)N[C@H](CO)C(N)=O)[C@H](C)O)[C@H](C)O", "note": "[D102(Lys^1Ser^26-5 Dab-1)] (Ac-[dK][dL][Dab][dS][dL][dL][Dab][dT][dL][dS][Dab][dA][dK][dA][dA][dK][dL][Dab][dT][dL][dL][Dab][dA][dL][dS][dS]-NH2)", "values": [{"measurement": "MIC MB9941", "setting": "[1]", "result": 0.4, "unit": "µM"}, {"measurement": "MIC MB9949", "setting": "[2]", "result": 0.7, "unit": "µM"}, {"measurement": "MIC MB9951", "setting": "[3]", "result": 0.7, "unit": "µM"}, {"measurement": "MIC MB9952", "setting": "[4]", "result": 0.7, "unit": "µM"}, {"measurement": "MIC MB9953", "setting": "[5]", "result": 1.4, "unit": "µM"}, {"measurement": "MIC MB9955", "setting": "[6]", "result": 0.7, "unit": "µM"}, {"measurement": "MIC MB9963", "setting": "[7]", "result": 0.7, "unit": "µM"}, {"measurement": "HC50 (concentration of peptide that results in 50% hemolysis)", "setting": "human red blood cells [8]", "result": ">708", "unit": "µM"}]}
{"smiles": "CC(=O)N[C@H](CCCCN)C(=O)N[C@H](CC(C)C)C(=O)N[C@@H](CN)C(=O)N[C@H](CO)C(=O)N[C@H](CC(C)C)C(=O)N[C@H](CC(C)C)C(=O)N[C@@H](CN)C(=O)N[C@@H](C(=O)N[C@H](CC(C)C)C(=O)N[C@H](CO)C(=O)N[C@@H](CN)C(=O)N[C@H](C)C(=O)N[C@H](CCCCN)C(=O)N[C@H](C)C(=O)N[C@H](C)C(=O)N[C@H](CCCCN)C(=O)N[C@H](CC(C)C)C(=O)N[C@@H](CN)C(=O)N[C@@H](C(=O)N[C@H](CC(C)C)C(=O)N[C@H](CC(C)C)C(=O)N[C@@H](CN)C(=O)N[C@H](C)C(=O)N[C@H](CC(C)C)C(=O)N[C@H](CO)C(=O)N[C@@H](CN)C(N)=O)[C@H](C)O)[C@H](C)O", "note": "[D105(Lys^1-6 Dap-1)] (Ac-[dK][dL][Dap][dS][dL][dL][Dap][dT][dL][dS][Dap][dA][dK][dA][dA][dK][dL][Dap][dT][dL][dL][Dap][dA][dL][dS][Dap]-NH2)", "values": [{"measurement": "MIC MB9955", "setting": "[6]", "result": 0.5, "unit": "µM"}, {"measurement": "lysis of human red blood cells at 1000 μg/mL", "setting": "human red blood cells [9]", "result": "essentially no lysis"}]}
{"smiles": "CC(=O)N[C@H](CCCCN)C(=O)N[C@H](CC(C)C)C(=O)N[C@@H](CCN)C(=O)N[C@H](CO)C(=O)N[C@H](CC(C)C)C(=O)N[C@H](CC(C)C)C(=O)N[C@@H](CCN)C(=O)N[C@@H](C(=O)N[C@H](CC(C)C)C(=O)N[C@H](CO)C(=O)N[C@@H](CCN)C(=O)N[C@H](C)C(=O)N[C@H](CCCCN)C(=O)N[C@H](C)C(=O)N[C@H](C)C(=O)N[C@H](CCCCN)C(=O)N[C@H](CC(C)C)C(=O)N[C@@H](CCN)C(=O)N[C@@H](C(=O)N[C@H](CC(C)C)C(=O)N[C@H](CC(C)C)C(=O)N[C@@H](CCN)C(=O)N[C@H](C)C(=O)N[C@H](CC(C)C)C(=O)N[C@H](CO)C(=O)N[C@@H](CCN)C(N)=O)[C@H](C)O)[C@H](C)O", "note": "[D86(Lys^1-6 Dab-1)] (Ac-[dK][dL][Dab][dS][dL][dL][Dab][dT][dL][dS][Dab][dA][dK][dA][dA][dK][dL][Dab][dT][dL][dL][Dab][dA][dL][dS][Dab]-NH2)", "values": [{"measurement": "MIC MB9941", "setting": "[1]", "result": 1.5, "unit": "µM"}, {"measurement": "MIC MB9949", "setting": "[2]", "result": 0.8, "unit": "µM"}, {"measurement": "MIC MB9951", "setting": "[3]", "result": 0.8, "unit": "µM"}, {"measurement": "MIC MB9952", "setting": "[4]", "result": 0.8, "unit": "µM"}, {"measurement": "MIC MB9953", "setting": "[5]", "result": 0.8, "unit": "µM"}, {"measurement": "MIC MB9955", "setting": "[6]", "result": 0.8, "unit": "µM"}, {"measurement": "MIC MB9963", "setting": "[7]", "result": 0.8, "unit": "µM"}]}
